This assay deals with human LPAR1 (Homo sapiens (Human), UniProt Q92633). Description: LPAR1 intracellular calcium mobilization assay (antagonist mode, FLIPR). The assay is classed as cell-based. As to conditions: CHO-K1 EDG2 cells expressing human LPAR1, LPA 18:2 at EC80 (100 nM), test compound 0.5 nM to 10 μM. Background: Calcium flux is commonly read through the fluorescence of an indicator in the cells.
Chain of human LPAR1 (Q92633 whole entry): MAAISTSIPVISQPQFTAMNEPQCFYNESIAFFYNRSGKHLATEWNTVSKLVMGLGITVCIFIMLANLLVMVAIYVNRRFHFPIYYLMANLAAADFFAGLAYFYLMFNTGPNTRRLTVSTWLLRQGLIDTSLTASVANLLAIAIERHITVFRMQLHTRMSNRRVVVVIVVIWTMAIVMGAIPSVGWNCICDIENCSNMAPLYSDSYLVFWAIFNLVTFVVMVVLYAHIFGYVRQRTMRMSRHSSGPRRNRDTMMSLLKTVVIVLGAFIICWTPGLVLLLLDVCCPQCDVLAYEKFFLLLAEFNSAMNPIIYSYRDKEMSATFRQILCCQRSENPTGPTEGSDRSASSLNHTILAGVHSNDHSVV
For `CO[C@]1(C#N)C[C@@H](C(=O)Nc2cnc(-c3nnn(C)c3NC(=O)O[C@H](C)c3cc(F)cnc3F)nc2)C1` [Compound 334, (R)-1-(2,5-difluoropyridin-3-yl)ethyl (4-(5-((1r,3R)-3-cyano-3-methoxycyclobutane-1-carboxamido)pyrimidin-2-yl)-1-methyl-1H-1,2,3-triazol-5-yl)carbamate], the EC50 worked out at 3420 nM.

As to `Cc1cnccc1C(=O)Nc1ccc(-c2nnn(C)c2NC(=O)O[C@H](C)c2cccnc2Cl)nc1` [Compound 101, (R)-1-(2-chloropyridin-3-yl)ethyl (1-methyl-4-(5-(3-methylisonicotinamido)pyridin-2-yl)-1H-1,2,3-triazol-5-yl)carbamate], the EC50 worked out at 1040 nM.

Consider `Cc1ncc(F)cc1[C@@H](C)OC(=O)Nc1c(-c2ccc(NC(=O)C3CC(F)(F)C3)cn2)nnn1C` [Compound 175, (R)-1-(5-fluoro-2-methylpyridin-3-yl)ethyl (4-(5-(3,3-difluorocyclobutane-1-carboxamido)pyridin-2-yl)-1-methyl-1H-1,2,3-triazol-5-yl)carbamate], for which the EC50 was 35.4 nM.

On to `Cc1cc(C(=O)Nc2ccc(-c3nnn(C)c3NC(=O)O[C@H](C)c3cc(F)cnc3F)nc2)cnn1` [Compound 231, (R)-1-(2,5-difluoropyridin-3-yl)ethyl (1-methyl-4-(5-(6-methylpyridazine-4-carboxamido)pyridin-2-yl)-1H-1,2,3-triazol-5-yl)carbamate], for which the EC50 was determined as 412 nM.

As for `C[C@@H](OC(=O)Nc1c(-c2cnc(NC(=O)c3cnc(C(F)F)nc3)cn2)nnn1C)c1cccnc1F` [Compound 327, (R)-1-(2-fluoropyridin-3-yl)ethyl (4-(5-(2-(difluoromethyl)pyrimidine-5-carboxamido)pyrazin-2-yl)-1-methyl-1H-1,2,3-triazol-5-yl)carbamate], the EC50 was 255 nM.

Consider `C[C@@H](OC(=O)Nc1c(-c2ccc(NC(=O)C3CC4(CC(F)C4)C3)cn2)nnn1C)c1cccnc1Cl` (stereo partly drawn) [Compound 81, (R)-1-(2-chloropyridin-3-yl)ethyl (4-(5-(6-fluorospiro[3.3]heptane-2-carboxamido)pyridin-2-yl)-1-methyl-1H-1,2,3-triazol-5-yl)carbamate], for which the concentration for a half-maximal effect (EC50) was 22.8 nM.

On to `C[C@@H](OC(=O)Nc1c(-c2ccc(NC(=O)c3cnccc3Cl)cn2)nnn1C)c1cc(F)cnc1F` [Compound 253, (R)-1-(2,5-difluoropyridin-3-yl)ethyl (4-(5-(4-chloronicotinamido)pyridin-2-yl)-1-methyl-1H-1,2,3-triazol-5-yl)carbamate], for which the EC50 amounted to 551 nM.

As for `CC(OC(=O)Nc1c(-c2ccc(NC(=O)C3(C#N)CC3)cn2)nnn1C)c1ccc(F)nc1Cl` (stereo not drawn) [Compound 181, 1-(2-chloro-6-fluoropyridin-3-yl)ethyl (4-(5-(1-cyanocyclopropane-1-carboxamido)pyridin-2-yl)-1-methyl-1H-1,2,3-triazol-5-yl)carbamate], the EC50 turned out to be 428 nM.

As to `C[C@@H](OC(=O)Nc1c(-c2ccc(NC(=O)c3cnn(C)c3)cn2)nnn1C)c1cccnc1Cl` [Compound 112, (R)-1-(2-chloropyridin-3-yl)ethyl (1-methyl-4-(5-(1-methyl-1H-pyrazole-4-carboxamido)pyridin-2-yl)-1H-1,2,3-triazol-5-yl)carbamate], the EC50 stood at 1400 nM.

On to `C[C@@H](OC(=O)Nc1c(-c2ccc(NC(=O)C3(C#N)CC4(CC4)C3)cn2)nnn1C)c1cccnc1Cl` [Compound 87, (R)-1-(2-chloropyridin-3-yl)ethyl (4-(5-(5-cyanospiro[2.3]hexane-5-carboxamido)pyridin-2-yl)-1-methyl-1H-1,2,3-triazol-5-yl)carbamate], for which the EC50 was determined as 16.1 nM.

As to `C[C@@H](OC(=O)Nc1c(-c2ccc(NC(=O)C3(C#N)CC34CCCC4)cn2)nnn1C)c1cccnc1Cl` (stereo partly drawn) [Compound 89, (R)-1-(2-chloropyridin-3-yl)ethyl (4-(5-(1-cyanospiro[2.4]heptane-1-carboxamido)pyridin-2-yl)-1-methyl-1H-1,2,3-triazol-5-yl)carbamate], the EC50 came to 312 nM.

Regarding `C[C@@H](OC(=O)Nc1c(-c2ccc(NC(=O)C3(C#N)CC(=O)C3)cn2)nnn1C)c1cccnc1Cl` [Compound 141, (R)-1-(2-chloropyridin-3-yl)ethyl (4-(5-(1-cyano-3-oxocyclobutane-1-carboxamido)pyridin-2-yl)-1-methyl-1H-1,2,3-triazol-5-yl)carbamate], the EC50 was found to be 459 nM.

In the case of `C[C@@H](OC(=O)Nc1c(-c2ccc(NC(=O)C3(C#N)CC4(CCC4)C3)cn2)nnn1C)c1cccnc1Cl` [Compound 79, (R)-1-(2-chloropyridin-3-yl)ethyl (4-(5-(2-cyanospiro[3.3]heptane-2-carboxamido)pyridin-2-yl)-1-methyl-1H-1,2,3-triazol-5-yl)carbamate], the EC50 was determined as 16 nM.

With `C[C@@H](OC(=O)Nc1c(-c2ccc(NC(=O)c3ccc4ncn(C)c4c3)cn2)nnn1C)c1cc(F)cnc1F` [Compound 274, (R)-1-(2,5-difluoropyridin-3-yl)ethyl (1-methyl-4-(5-(1-methyl-1H-benzo[d]imidazole-6-carboxamido)pyridin-2-yl)-1H-1,2,3-triazol-5-yl)carbamate], the EC50 amounted to 403 nM.

On to `C[C@@H](OC(=O)Nc1c(-c2ccc(NC(=O)C34CC(C#N)(C3)C4)cn2)nnn1C)c1cccnc1F` [Compound 174, (R)-1-(2-fluoropyridin-3-yl)ethyl (4-(5-(3-cyanobicyclo[1.1.1]pentane-1-carboxamido)pyridin-2-yl)-1-methyl-1H-1,2,3-triazol-5-yl)carbamate], for which the EC50 stood at 107 nM.

Consider `CO[C@]1(C#N)C[C@H](C(=O)Nc2ccc(-c3nnn(C)c3NC(=O)O[C@H](C)c3cccnc3Cl)nc2)C1` [Compound 138, (R)-1-(2-chloropyridin-3-yl)ethyl (4-(5-((1s,3S)-3-cyano-3-methoxycyclobutane-1-carboxamido)pyridin-2-yl)-1-methyl-1H-1,2,3-triazol-5-yl)carbamate], for which the EC50 came out at 84.9 nM.

Consider `C[C@@H](OC(=O)Nc1c(-c2ccc(NC(=O)c3cnc(C(F)F)nc3)cn2)nnn1C)c1cccnc1Cl` [Compound 206, (R)-1-(2-chloropyridin-3-yl)ethyl (4-(5-(2-(difluoromethyl)pyrimidine-5-carboxamido)pyridin-2-yl)-1-methyl-1H-1,2,3-triazol-5-yl)carbamate], for which the EC50 amounted to 71.8 nM.

In the case of `C[C@@H](OC(=O)Nc1c(-c2ncc(NC(=O)C34CC(C#N)(C3)C4)cc2F)nnn1C)c1cc(F)cnc1F` [Compound 337, (R)-1-(2,5-difluoropyridin-3-yl)ethyl (4-(5-(3-cyanobicyclo[1.1.1]pentane-1-carboxamido)-3-fluoropyridin-2-yl)-1-methyl-1H-1,2,3-triazol-5-yl)carbamate], the EC50 worked out at 163 nM.

Take `C[C@@H](OC(=O)Nc1c(-c2ccc(NC(=O)c3cnc(C(F)F)nc3)cn2)nnn1C)c1cc(F)cnc1Cl` [Compound 289, (R)-1-(2-chloro-5-fluoropyridin-3-yl)ethyl (4-(5-(2-(difluoromethyl)pyrimidine-5-carboxamido)pyridin-2-yl)-1-methyl-1H-1,2,3-triazol-5-yl)carbamate]: the EC50 was found to be 21.5 nM.

In the case of `CC(OC(=O)Nc1c(-c2ccc(NC(=O)C(F)(F)F)cn2)nnn1C)c1cc(Br)cnc1F` (stereo not drawn) [Compound 12, 1-(5-bromo-2-fluoropyridin-3-yl)ethyl (1-methyl-4-(5-(2,2,2-trifluoroacetamido)pyridin-2-yl)-1H-1,2,3-triazol-5-yl)carbamate], the EC50 worked out at 541 nM.

Consider `C[C@@H](OC(=O)Nc1c(-c2ccc(NC(=O)c3ccc(C(F)F)nc3)cn2)nnn1C)c1cccnc1F` [Compound 295, (R)-1-(2-fluoropyridin-3-yl)ethyl (4-(5-(6-(difluoromethyl)nicotinamido)pyridin-2-yl)-1-methyl-1H-1,2,3-triazol-5-yl)carbamate], for which the EC50 worked out at 391 nM.

Take `C[C@@H](OC(=O)Nc1c(-c2ccc(NC(=O)N3CCC(F)(F)C3)cn2)nnn1C)c1cccnc1Cl` [Compound 193, (R)-1-(2-chloropyridin-3-yl)ethyl (4-(5-(3,3-difluoropyrrolidine-1-carboxamido)pyridin-2-yl)-1-methyl-1H-1,2,3-triazol-5-yl)carbamate]: the EC50 came out at 287 nM.

As to `C[C@@H](OC(=O)Nc1c(-c2ccc(NC(=O)c3ccc(C(C)(F)F)nc3)cn2)nnn1C)c1cc(F)cnc1F` [Compound 272, (R)-1-(2,5-difluoropyridin-3-yl)ethyl (4-(5-(6-(1,1-difluoroethyl)nicotinamido)pyridin-2-yl)-1-methyl-1H-1,2,3-triazol-5-yl)carbamate], the EC50 came out at 162 nM.

For `C[C@@H](OC(=O)Nc1c(-c2ccc(NC(=O)[C@H]3CNC(=O)C3)cn2)nnn1C)c1cccnc1Cl` [Compound 195, (R)-1-(2-chloropyridin-3-yl)ethyl (1-methyl-4-(5-((R)-5-oxopyrrolidine-3-carboxamido)pyridin-2-yl)-1H-1,2,3-triazol-5-yl)carbamate], the EC50 came to 1540 nM.

For the molecule `C[C@@H](OC(=O)Nc1c(-c2ccc(NC(=O)c3ccc(=O)n(C)c3)cn2)nnn1C)c1cc(F)cnc1F` [Compound 236, (R)-1-(2,5-difluoropyridin-3-yl)ethyl (1-methyl-4-(5-(1-methyl-6-oxo-1,6-dihydropyridine-3-carboxamido)pyridin-2-yl)-1H-1,2,3-triazol-5-yl)carbamate], the 50% effective concentration (EC50) was found to be 1660 nM.

Consider `C[C@@H](OC(=O)Nc1c(-c2ccc(NC(=O)C3(C#N)CC3)c(F)n2)nnn1C)c1cccnc1Cl` [Compound 316, (R)-1-(2-chloropyridin-3-yl)ethyl (4-(5-(1-cyanocyclopropane-1-carboxamido)-6-fluoropyridin-2-yl)-1-methyl-1H-1,2,3-triazol-5-yl)carbamate], for which the EC50 is 41.6 nM.

As for `C[C@@H](OC(=O)Nc1c(-c2ccc(NC(=O)C3CC4(C3)CC(F)(F)C4)cn2)nnn1C)c1cccnc1Cl` [Compound 41, (R)-1-(2-chloropyridin-3-yl)ethyl (4-(5-(6,6-difluorospiro[3.3]heptane-2-carboxamido)pyridin-2-yl)-1-methyl-1H-1,2,3-triazol-5-yl)carbamate], the EC50 was determined as 38.1 nM.

Broadly, the EC50 is the concentration needed to bring the measured effect to its halfway point.
